Holding throughout (type): cell-based
The subject of one experiment is E. coli NIHJ JC-2. In words: MIC, E. coli NIHJ JC-2. To be noted: Escherichia coli, NIHJJC2. From the text:
(§1) The minimum inhibitory concentration (MIC) of compounds (1) according to the present invention is illustrated in Table 1.

Another experiment concerns Staph. aureus MS353 AO. As to the kind of experiment: MIC, Staph. aureus MS353 AO. As to conditions: Staphylococcus aureus, MS353AO.
Source text: as §1

For the next experiment, the system named is Staph. aureus Smith. As to the kind of experiment: MIC, Staph. aureus Smith. To be noted: Staphylococcus aureus.
Source text: as §1

The next experiment concerns Strept. pyogenes 1022. In words: MIC, Strept. pyogenes 1022. As to conditions: Streptococcus pyogenes.
Source text: as §1

A further experiment deals with Staph. aureus MS353C36. As to the kind of experiment: MIC, Staph. aureus MS353C36 (erythromycin resistant strain). To be noted: Staphylococcus aureus.
Source text: as §1

In another experiment the test system is Staph. aureus 0127. In words: MIC, Staph. aureus 0127. To be noted: Staphylococcus aureus.
Source text: as §1

A further experiment relates to Staph. aureus MS353. As to the kind of experiment: MIC, Staph. aureus MS353. To be noted: Staphylococcus aureus.
Source text: as §1

The subject of experiment [1] is Bacillus subtilis ATCC6633. As to the kind of experiment: MIC, Bacillus subtilis ATCC6633.
Source text: as §1

The test system of a further experiment is Staph. aureus 0126. In words: MIC, Staph. aureus 0126. As to conditions: Staphylococcus aureus.
Source text: as §1

Experiment [2] relates to Micrococcus luteus ATCC9341. As to the kind of experiment: MIC, Micrococcus luteus ATCC9341.
Source text: as §1

The test system of experiment [3] is Enterococcus faecalis 1501. As to the kind of experiment: MIC, Enterococcus faecalis 1501.
Source text: as §1

In the next experiment the test system is Strept. pyogenes N.Y.5. In words: MIC, Strept. pyogenes N.Y.5. As to conditions: Streptococcus pyogenes.
Source text: as §1

Experiment [4] concerns Coryne. diphtheriae P.W.8. As to the kind of experiment: MIC, Coryne. diphtheriae P.W.8. As to conditions: Corynebacterium diphtheriae.
Source text: as §1

The test system of another experiment is Staph. aureus 0119. In words: MIC, Staph. aureus 0119. As to conditions: Staphylococcus aureus.
Source text: as §1

In another experiment the test system is Staph. aureus ATCC6538P. As to the kind of experiment: MIC, Staph. aureus ATCC6538P. To be noted: Staphylococcus aureus.
Source text: as §1

For the next experiment, the system named is Strept. agalactiae 1020. As to the kind of experiment: MIC, Strept. agalactiae 1020. To be noted: Streptococcus agalactiae.
Source text: as §1

[5] abbreviates: Staph. aureus Smith, read-out: MIC.
[6] abbreviates: Staph. aureus MS353, read-out: MIC.
Setting [7] is: Staph. aureus 0126, read-out: MIC.

Structures are written as SMILES. ≈ marks a conversion by molar mass, not a printed value. Like-named read-outs stand apart in the source and are kept apart here.

As a reminder, the MIC is the lowest concentration that inhibits growth of the organism. Take `CCC1OC(=O)CC(O)C(C)C(OC2OC(C)C(O)C(N(C)C)C2O)C(C)CC(C)C(=O)/C=C/C(C)=C/C1COC1OC(C)CC(=O)C1OC` (stereo not shown) [Compound 1, 4"-deoxy-3"-demethoxy-3"-oxo-19-deformyldesmycosin]: the minimum inhibitory concentration (MIC) in the experiment on E. coli NIHJ JC-2 is above 100 µg/mL; against Staph. aureus MS353 AO it was above 100 µg/mL; in the experiment on Staph. aureus Smith (setting [5]) it was 0.78 µg/mL (≈ 1.1 µM); in the experiment with Strept. pyogenes 1022, 50 µg/mL (≈ 70.2 µM); in the experiment on Staph. aureus MS353C36, 0.39 µg/mL (≈ 0.548 µM); with Staph. aureus 0127 it was above 100 µg/mL. Besides, the minimal inhibitory concentration (MIC) in the experiment on Staph. aureus MS353 (setting [6]) is 0.39 µg/mL (≈ 0.548 µM); in experiment [1], 0.1 µg/mL (≈ 0.14 µM); in the experiment on Staph. aureus 0126 (setting [7]), 1.56 µg/mL (≈ 2.19 µM); in experiment [2], 0.2 µg/mL (≈ 0.281 µM); in experiment [3], 1.56 µg/mL (≈ 2.19 µM); in the experiment on Strept. pyogenes N.Y.5 it was 0.2 µg/mL (≈ 0.281 µM). The MIC in [4] was 0.1 µg/mL (≈ 0.14 µM); in the experiment on Staph. aureus 0119, above 100 µg/mL; against Staph. aureus ATCC6538P, 0.39 µg/mL (≈ 0.548 µM); with Strept. agalactiae 1020, 0.39 µg/mL (≈ 0.548 µM).
For the compound `CCC1OC(=O)CC(O)C(C)C(OC2OC(C)CC(N(C)C)C2O)C(C)CC(C)C(=O)/C=C/C(C)=C/C1COC1OC(C)C=C(OC)C1OC` (stereo not shown) [Compound 2, 4',4"-dideoxy-3",4"-di-dehydro-19-deformyldesmycosin], the MIC with E. coli NIHJ JC-2 is above 100 µg/mL; with Staph. aureus MS353 AO it was above 100 µg/mL; in the experiment with Staph. aureus Smith (setting [5]) it was 0.39 µg/mL (≈ 0.549 µM); against Strept. pyogenes 1022, above 100 µg/mL; in the experiment on Staph. aureus MS353C36, 0.2 µg/mL (≈ 0.282 µM); against Staph. aureus 0127, above 100 µg/mL. The MIC in the experiment on Staph. aureus MS353 (setting [6]) was 0.2 µg/mL (≈ 0.282 µM); in experiment [1], 0.1 µg/mL (≈ 0.141 µM); with Staph. aureus 0126 (setting [7]), 6.25 µg/mL (≈ 8.8 µM); in [2], at most 0.05 µg/mL; in experiment [3], 1.56 µg/mL (≈ 2.2 µM); with Strept. pyogenes N.Y.5 it was 0.2 µg/mL (≈ 0.282 µM). In addition, the MIC is 0.2 µg/mL (≈ 0.282 µM) in experiment [4], above 100 µg/mL with Staph. aureus 0119, 0.2 µg/mL (≈ 0.282 µM) against Staph. aureus ATCC6538P and 0.39 µg/mL (≈ 0.549 µM) in the experiment with Strept. agalactiae 1020.
Regarding `C=C1CC(C)OC(OCC2/C=C(C)/C=C/C(=O)C(C)CC(C)C(OC3OC(C)C(O)C(N(C)C)C3O)C(C)C(O)CC(=O)OC2CC)C1OC` (stereo not shown) [Compound 3, 4"-deoxy-3"-demethoxy-3"-methylene-19-deformyldesmycosin], the MIC against E. coli NIHJ JC-2 was above 100 µg/mL; in the experiment on Staph. aureus MS353 AO it was above 100 µg/mL; with Staph. aureus Smith (setting [5]), 1.56 µg/mL (≈ 2.2 µM); against Strept. pyogenes 1022 it was 50 µg/mL (≈ 70.4 µM); against Staph. aureus MS353C36, 0.39 µg/mL (≈ 0.549 µM); in the experiment with Staph. aureus 0127, above 100 µg/mL. The MIC was 0.39 µg/mL (≈ 0.549 µM) in the experiment on Staph. aureus MS353 (setting [6]); 0.1 µg/mL (≈ 0.141 µM) in experiment [1]; 0.1 µg/mL (≈ 0.141 µM) in [2]; 0.78 µg/mL (≈ 1.1 µM) in experiment [3]; 0.78 µg/mL (≈ 1.1 µM) with Strept. pyogenes N.Y.5; at most 0.05 µg/mL in [4]. Further, the minimal inhibitory concentration (MIC) in the experiment on Staph. aureus 0119 is above 100 µg/mL; against Staph. aureus ATCC6538P, 0.39 µg/mL (≈ 0.549 µM); against Strept. agalactiae 1020, 0.1 µg/mL (≈ 0.141 µM).
Take `C=C1CC(C)OC(OCC2/C=C(C)/C=C/C(=O)C(C)CC(C)C(OC3OC(C)CC(N(C)C)C3O)C(C)C(O)CC(=O)OC2CC)C1OC` (stereo not shown) [Compound 4, 4',4"-di-deoxy-3"-demethoxy-3"-methylene-19-deformyldesmycosin]: the MIC was above 100 µg/mL against E. coli NIHJ JC-2; above 100 µg/mL in the experiment with Staph. aureus MS353 AO; 0.39 µg/mL (≈ 0.562 µM) with Staph. aureus Smith (setting [5]); 3.13 µg/mL (≈ 4.51 µM) in the experiment with Strept. pyogenes 1022; 0.2 µg/mL (≈ 0.288 µM) against Staph. aureus MS353C36; 100 µg/mL (≈ 144 µM) in the experiment on Staph. aureus 0127. For the same compound, the MIC in the experiment with Staph. aureus MS353 (setting [6]) was 0.2 µg/mL (≈ 0.288 µM); in experiment [1], 0.1 µg/mL (≈ 0.144 µM); with Staph. aureus 0126 (setting [7]), 0.78 µg/mL (≈ 1.12 µM); in experiment [2], at most 0.05 µg/mL; in experiment [3], 0.39 µg/mL (≈ 0.562 µM); in the experiment with Strept. pyogenes N.Y.5, 0.1 µg/mL (≈ 0.144 µM). Besides, the MIC in [4] was at most 0.05 µg/mL; in the experiment on Staph. aureus 0119, above 100 µg/mL; against Staph. aureus ATCC6538P, 0.1 µg/mL (≈ 0.144 µM); against Strept. agalactiae 1020, at most 0.05 µg/mL.
On to `C=C1CC(C)OC(OCC2/C=C(C)/C=C/C(=O)C(C)CC(C)C(OC3OC(C)C(O)C(N(C)C)C3O)C(C)C(OC(=O)CC)CC(=O)OC2CC)C1OC` (stereo not shown) [Compound 5, 4"-deoxy-3"-demethoxy-3"-methylene-3-0-propionyl-19-deformyldesmycosin], for which the minimal inhibitory concentration (MIC) against E. coli NIHJ JC-2 is above 100 µg/mL; in the experiment on Staph. aureus MS353 AO, above 100 µg/mL; in the experiment with Staph. aureus Smith (setting [5]), 0.78 µg/mL (≈ 1.02 µM); in the experiment on Strept. pyogenes 1022, 100 µg/mL (≈ 131 µM); in the experiment on Staph. aureus MS353C36 it was 0.78 µg/mL (≈ 1.02 µM); in the experiment with Staph. aureus 0127, above 100 µg/mL. Further, the minimal inhibitory concentration (MIC) in the experiment on Staph. aureus MS353 (setting [6]) was 0.78 µg/mL (≈ 1.02 µM); in [1] it was at most 0.05 µg/mL; in experiment [2], 0.2 µg/mL (≈ 0.261 µM); in experiment [3], 1.56 µg/mL (≈ 2.04 µM); in the experiment on Strept. pyogenes N.Y.5 it was 0.78 µg/mL (≈ 1.02 µM); in experiment [4] it was 0.2 µg/mL (≈ 0.261 µM). The MIC against Staph. aureus 0119 was above 100 µg/mL; in the experiment on Staph. aureus ATCC6538P, 0.39 µg/mL (≈ 0.509 µM); in the experiment on Strept. agalactiae 1020 it was 0.2 µg/mL (≈ 0.261 µM).
`C=C1CC(C)OC(OCC2/C=C(C)/C=C/C(=O)C(C)CC(C)C(OC3OC(C)C(O)C(N(C)C)C3O)C(C)C(OC(=O)N(C)C)CC(=O)OC2CC)C1OC` (stereo not shown) [Compound 6, 4"-deoxy-3"-demethoxy-3"-methylene-3-0-dimethylcarbamoyl-19-deformyldesmycosin]: the minimal inhibitory concentration (MIC) is above 100 µg/mL against E. coli NIHJ JC-2; above 100 µg/mL in the experiment on Staph. aureus MS353 AO; 1.56 µg/mL (≈ 2 µM) in the experiment with Staph. aureus Smith (setting [5]); above 100 µg/mL in the experiment on Strept. pyogenes 1022; 0.78 µg/mL (≈ 0.999 µM) in the experiment on Staph. aureus MS353C36; above 100 µg/mL in the experiment on Staph. aureus 0127. In addition, the minimum inhibitory concentration (MIC) in the experiment with Staph. aureus MS353 (setting [6]) came out at 0.39 µg/mL (≈ 0.499 µM); in experiment [1] it was 0.1 µg/mL (≈ 0.128 µM); in [2], 0.2 µg/mL (≈ 0.256 µM); in experiment [3] it was 0.78 µg/mL (≈ 0.999 µM); in the experiment on Strept. pyogenes N.Y.5 it was 0.78 µg/mL (≈ 0.999 µM); in experiment [4], 0.1 µg/mL (≈ 0.128 µM). Moreover, the minimal inhibitory concentration (MIC) in the experiment on Staph. aureus 0119 was above 100 µg/mL; against Staph. aureus ATCC6538P, 0.39 µg/mL (≈ 0.499 µM); in the experiment on Strept. agalactiae 1020, 0.2 µg/mL (≈ 0.256 µM).
Consider `CCC1OC(=O)CC(O)C(C)C(OC2OC(C)C(O)C(N(C)C)C2O)C(CC=O)CC(C)C(=O)/C=C/C(C)=C/C1COC1OC(C)C(O)C(OC)C1OC` (stereo not shown) [Des, Desmycosin (4'-demycarosyltylosin), reference compound], for which the MIC is above 100 µg/mL with E. coli NIHJ JC-2; 100 µg/mL (≈ 130 µM) in the experiment with Staph. aureus MS353 AO; 1.56 µg/mL (≈ 2.02 µM) with Staph. aureus Smith; above 100 µg/mL against Strept. pyogenes 1022; 1.56 µg/mL (≈ 2.02 µM) with Staph. aureus MS353C36; above 100 µg/mL against Staph. aureus 0127. Besides, the MIC against Staph. aureus MS353 (MS353) stood at 1.56 µg/mL (≈ 2.02 µM); in experiment [1] it was 0.78 µg/mL (≈ 1.01 µM); against Staph. aureus 0126 (0126), 1.56 µg/mL (≈ 2.02 µM); in experiment [2], 0.2 µg/mL (≈ 0.259 µM); in [3] it was 0.78 µg/mL (≈ 1.01 µM); with Strept. pyogenes N.Y.5 it was 0.1 µg/mL (≈ 0.13 µM). The MIC in experiment [4] is 0.1 µg/mL (≈ 0.13 µM); in the experiment with Staph. aureus 0119, above 100 µg/mL; against Staph. aureus ATCC6538P it was 0.78 µg/mL (≈ 1.01 µM); in the experiment on Strept. agalactiae 1020, 0.2 µg/mL (≈ 0.259 µM).

Values taken from patent US4868290A, “4'-Deoxy-3"-demethoxy-3"-methylenedesmycosin derivatives and synthetic intermediates thereof” (Toyo Jozo Kabushiki Kaisha, priority 1987, dated 1989).
